pIC50: −log10 of the molar value. Calls of active or inactive are those of the source. The calls are words filed in the database; no cut-off is given here.
Columns and labels:
[1] = biological target: T1, Procollagen-lysine,2-oxoglutarate 5-dioxygenase 2 (Homo sapiens, UniProt O00469); assay: Inhibition of human recombinant LH2 expressed in CHO cells incubated for 30 mins by luciferase-based Succinate-GloTM JmjC Demethylase/Hydroxylase Assay; format: cell-based; conditions: for pIC50: read-out: IC50; for IC50: cho
T1 sequence (O00469 whole entry): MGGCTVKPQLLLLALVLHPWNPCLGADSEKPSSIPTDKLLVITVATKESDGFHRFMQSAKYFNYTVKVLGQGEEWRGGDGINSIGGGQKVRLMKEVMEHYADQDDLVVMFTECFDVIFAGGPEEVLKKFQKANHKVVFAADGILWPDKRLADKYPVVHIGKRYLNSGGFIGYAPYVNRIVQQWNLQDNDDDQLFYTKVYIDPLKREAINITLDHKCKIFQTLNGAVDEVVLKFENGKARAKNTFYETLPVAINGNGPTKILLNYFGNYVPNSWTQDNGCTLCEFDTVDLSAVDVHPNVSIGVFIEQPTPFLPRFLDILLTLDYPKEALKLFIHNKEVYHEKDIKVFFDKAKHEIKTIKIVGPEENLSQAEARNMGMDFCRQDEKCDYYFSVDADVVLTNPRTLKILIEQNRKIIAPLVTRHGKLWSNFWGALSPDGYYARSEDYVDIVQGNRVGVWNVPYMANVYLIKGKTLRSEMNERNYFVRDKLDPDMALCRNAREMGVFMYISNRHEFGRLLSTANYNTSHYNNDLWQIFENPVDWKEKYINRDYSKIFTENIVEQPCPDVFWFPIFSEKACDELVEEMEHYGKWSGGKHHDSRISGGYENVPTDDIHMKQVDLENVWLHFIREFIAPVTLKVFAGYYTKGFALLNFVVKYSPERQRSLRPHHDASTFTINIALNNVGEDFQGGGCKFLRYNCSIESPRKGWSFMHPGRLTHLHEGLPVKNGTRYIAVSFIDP

[2] = biological target: T2, Procollagen-lysine,2-oxoglutarate 5-dioxygenase 1 (Homo sapiens, UniProt Q02809); assay: Inhibition of human recombinant LH1 expressed in CHO cells incubated for 30 mins by luciferase-based Succinate-GloTM JmjC Demethylase/Hydroxylase Assay; format: cell-based
T2 sequence (Q02809 whole entry): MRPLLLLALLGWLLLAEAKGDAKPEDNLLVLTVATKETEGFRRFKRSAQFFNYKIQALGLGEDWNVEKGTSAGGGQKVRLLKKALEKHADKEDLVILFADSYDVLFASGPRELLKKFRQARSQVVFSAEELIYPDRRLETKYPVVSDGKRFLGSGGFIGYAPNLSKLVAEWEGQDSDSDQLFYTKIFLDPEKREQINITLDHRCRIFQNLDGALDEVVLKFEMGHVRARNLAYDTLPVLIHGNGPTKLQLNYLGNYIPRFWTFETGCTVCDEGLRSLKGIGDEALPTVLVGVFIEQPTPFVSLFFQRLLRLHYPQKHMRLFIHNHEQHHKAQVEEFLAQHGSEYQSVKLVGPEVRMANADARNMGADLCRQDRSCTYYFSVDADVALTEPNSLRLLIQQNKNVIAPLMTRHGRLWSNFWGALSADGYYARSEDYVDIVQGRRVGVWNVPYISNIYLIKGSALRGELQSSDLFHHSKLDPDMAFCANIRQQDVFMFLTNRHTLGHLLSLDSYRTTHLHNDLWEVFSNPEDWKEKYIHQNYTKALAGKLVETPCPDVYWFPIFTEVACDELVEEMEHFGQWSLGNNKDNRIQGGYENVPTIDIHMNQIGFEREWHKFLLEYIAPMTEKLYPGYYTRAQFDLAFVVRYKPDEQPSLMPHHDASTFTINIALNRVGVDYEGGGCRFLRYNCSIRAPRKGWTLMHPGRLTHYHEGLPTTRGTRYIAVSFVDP

[3] = biological target: T3, Multifunctional procollagen lysine hydroxylase and glycosyltransferase LH3 (Homo sapiens, UniProt O60568); assay: Inhibition of human recombinant LH3 expressed in CHO cells incubated for 30 mins by luciferase-based Succinate-GloTM JmjC Demethylase/Hydroxylase Assay; format: cell-based
T3 sequence (O60568 whole entry): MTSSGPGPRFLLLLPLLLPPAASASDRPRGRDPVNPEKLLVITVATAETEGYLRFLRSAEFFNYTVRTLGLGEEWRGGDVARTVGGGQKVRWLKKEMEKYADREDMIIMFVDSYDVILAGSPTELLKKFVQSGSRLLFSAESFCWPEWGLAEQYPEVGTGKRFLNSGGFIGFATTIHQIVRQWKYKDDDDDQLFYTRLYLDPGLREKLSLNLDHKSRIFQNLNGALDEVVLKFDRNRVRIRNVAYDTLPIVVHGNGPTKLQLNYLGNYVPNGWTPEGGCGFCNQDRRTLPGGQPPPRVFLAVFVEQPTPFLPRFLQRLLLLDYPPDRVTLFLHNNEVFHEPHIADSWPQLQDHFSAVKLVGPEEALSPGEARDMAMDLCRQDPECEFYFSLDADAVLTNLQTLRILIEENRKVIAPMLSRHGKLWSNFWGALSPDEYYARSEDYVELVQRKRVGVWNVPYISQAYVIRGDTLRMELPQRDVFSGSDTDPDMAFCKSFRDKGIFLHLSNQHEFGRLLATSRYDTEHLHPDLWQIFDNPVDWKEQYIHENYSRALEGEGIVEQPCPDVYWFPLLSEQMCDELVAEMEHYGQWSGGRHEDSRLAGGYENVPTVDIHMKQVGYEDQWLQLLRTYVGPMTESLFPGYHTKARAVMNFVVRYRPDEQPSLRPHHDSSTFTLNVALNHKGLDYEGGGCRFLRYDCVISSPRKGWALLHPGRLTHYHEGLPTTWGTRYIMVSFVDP

[4] = species: Homo sapiens; assay: Selectivity ratio of IC50 for inhibition of human recombinant LH1 to IC50 for inhibition of human recombinant LH2; conditions: time 30.0 min
[5] = species: Homo sapiens; assay: Selectivity ratio of IC50 for inhibition of human recombinant LH3 to IC50 for inhibition of human recombinant LH2
[6] = biological target: T4, Lysine-specific demethylase 4A (Homo sapiens) (UniProt O75164); assay: Inhibition of JMJD2A (unknown origin) at 11 uM by Succinate-Glo kit assay
T4 sequence (whole entry): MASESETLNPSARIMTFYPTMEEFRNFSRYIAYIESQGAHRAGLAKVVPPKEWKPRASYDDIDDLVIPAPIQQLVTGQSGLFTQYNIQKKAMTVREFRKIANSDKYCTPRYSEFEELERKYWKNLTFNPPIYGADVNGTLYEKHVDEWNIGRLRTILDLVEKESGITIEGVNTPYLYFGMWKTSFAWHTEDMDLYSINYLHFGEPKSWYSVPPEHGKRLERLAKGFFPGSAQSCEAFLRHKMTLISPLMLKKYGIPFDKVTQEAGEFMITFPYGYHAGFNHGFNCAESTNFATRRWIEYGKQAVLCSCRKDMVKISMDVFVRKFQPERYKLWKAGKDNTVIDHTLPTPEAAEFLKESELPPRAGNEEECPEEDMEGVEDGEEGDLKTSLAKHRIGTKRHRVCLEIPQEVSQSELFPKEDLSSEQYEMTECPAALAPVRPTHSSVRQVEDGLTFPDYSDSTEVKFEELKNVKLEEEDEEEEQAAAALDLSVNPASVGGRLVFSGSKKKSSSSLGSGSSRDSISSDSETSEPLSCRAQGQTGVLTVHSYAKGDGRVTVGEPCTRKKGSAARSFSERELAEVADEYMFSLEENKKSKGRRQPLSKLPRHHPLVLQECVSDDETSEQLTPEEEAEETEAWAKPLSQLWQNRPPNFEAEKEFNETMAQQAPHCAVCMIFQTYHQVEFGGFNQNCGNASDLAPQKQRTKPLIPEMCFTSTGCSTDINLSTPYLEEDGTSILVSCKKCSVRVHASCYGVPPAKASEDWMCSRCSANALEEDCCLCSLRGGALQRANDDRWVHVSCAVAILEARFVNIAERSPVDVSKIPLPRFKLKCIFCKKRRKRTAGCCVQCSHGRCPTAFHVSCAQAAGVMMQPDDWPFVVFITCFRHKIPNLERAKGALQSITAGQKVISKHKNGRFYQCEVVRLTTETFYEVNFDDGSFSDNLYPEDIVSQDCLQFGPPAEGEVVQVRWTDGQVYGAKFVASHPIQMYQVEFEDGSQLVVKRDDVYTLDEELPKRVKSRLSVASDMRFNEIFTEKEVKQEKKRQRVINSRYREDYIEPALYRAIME

[7] = system: 344SQ; assay: Antiproliferative activity against mouse wild type 344SQ cells assessed as reduction in cell viability observed after 48 hrs by CCK-8 assay; format: functional, cell-based

| pIC50 [1] | Structure (SMILES) | other results |
| --- | --- | --- |
| < 5.00 | c1cc(-c2cc(-c3ccncc3)n[nH]2)cc(N2CCOCC2)c1 |  |
| < 5.00 | O=C(CC(=O)c1nnn[nH]1)c1cccc(N2CCOCC2)c1 |  |
| 6.00 | O=C(CC(=O)c1ccncc1)c1ccccc1 | pIC50 [2]: 5.19; pIC50 [3]: 5.28; Selectivity ratio [4]: 6; Selectivity ratio [5]: 5; inhibition [6]: Active |

The next lines start with the molecule.

| Structure (SMILES) | pIC50 [1] | other results |
| --- | --- | --- |
| CN1CCN(c2cccc(C(=O)CC(=O)c3nnn[nH]3)c2)CC1 | < 5.00 |  |
| O=C(c1cccnc1)C1CCc2cc(F)ccc2C1=O (stereo not drawn) | < 5.00 |  |
| O=C(c1cccnc1)C1CCc2cc(Cl)ccc2C1=O (stereo not drawn) |  | IC50 [1]: Not Active |
| O=C(CC(=O)c1cccnc1)c1ccccc1 | 5.30 |  |
| O=C(CC(=O)c1cccnc1)c1ccc([N+](=O)[O-])cc1 | < 5.00 |  |
| CN1CCN(c2cccc(C(=O)CC(=O)c3ccncc3)c2)CC1 |  | Activity [7]: inactive |
| O=C(CC(=O)c1cccnc1)c1ccc(C(F)(F)F)cc1 |  | IC50 [1]: Not Active |
| O=C(CC(=O)C(F)(F)F)c1ccc([N+](=O)[O-])cc1 | < 5.00 |  |
| Cc1ccc(C(=O)CC(=O)c2cccc(N3CCOCC3)c2)cc1 |  | IC50 [1]: Not Active |
| CN1CCN(c2cccc(-c3cc(-c4ccncc4)n[nH]3)c2)CC1 | < 5.00 |  |

From ChEMBL document CHEMBL5365547, “Unleashing the Potential of 1,3-Diketone Analogues as Selective LH2 Inhibitors” (ACS Med Chem Lett, 2023)
